Experimental data: article PMC3298469, “A selective and potent CXCR3 antagonist SCH 546738 attenuates the development of autoimmune diseases and delays graft rejection” (BMC Immunology, 2012)
Like-named read-outs stand apart in the source and are kept apart here.

Experiments:
[1] = molecular target: CXCR1 (Homo sapiens, UniProt P25024); assay: GPCR counterscreen binding assay
Method: (§1) SCH 546738 was tested at concentrations of 1-10 μM against a panel of 49 GPCR binding assays. Most of the assays were not affected by SCH 546738 (Table 2). […] In addition, SCH 546738 has a favourable pharmacokinetic profile in rodents. […] Therefore, SCH 546738 is suitable for in vivo preclinical studies.

[2] = molecular target: Neuropeptide Y (Y4) (Homo sapiens, UniProt P50391); assay: GPCR counterscreen binding assay
Method: as §1

[3] = molecular target: Prokineticin PKR1 (Homo sapiens, UniProt Q8TCW9); assay: GPCR counterscreen binding assay
Method: as §1

[4] = molecular target: Serotonergic 5HT1A (Homo sapiens, UniProt P08908); assay: GPCR counterscreen binding assay
Method: as §1

[5] = molecular target: Muscarinic M1 (Homo sapiens, UniProt P11229); assay: GPCR counterscreen binding assay
Method: as §1

[6] = molecular target: Histamine H1 (Homo sapiens, UniProt P35367); assay: GPCR counterscreen binding assay
Method: as §1

[7] = molecular target: Muscarinic M4 (Homo sapiens, UniProt P08173); assay: GPCR counterscreen binding assay
Method: as §1

[8] = molecular target: Neuropeptide Y (Y5) (Homo sapiens, UniProt Q15761); assay: GPCR counterscreen binding assay
Method: as §1

[9] = molecular target: Kappa opiate (Homo sapiens, UniProt P41145); assay: GPCR counterscreen binding assay
Method: as §1

[10] = molecular target: CCR3 (Homo sapiens, UniProt P51677); assay: GPCR counterscreen binding assay
Method: as §1

[11] = plasma pharmacokinetics after oral dosing in C57BL/6 mouse; assay type: in vivo; details: 30 mg/kg, 30 mpk oral in 0.4% methylcellulose, n = 3, read-out: AUC (0-24 hr)
Method: as §1
(§2) Figure 4 Plasma concentration versus time profiles of SCH 546738 in Lewis rat and C57BL/6 mouse. SCH 546738 in 0.4% methylcellulose was administered orally at 10 mg/kg (mpk) in Lewis rats or 30 mpk in C57BL/6 mice. The plasma concentration of SCH 546738 in the blood was calculated as the mean of 3 animals (n = 3) at indicated time points post-dose. Their AUC from 0 to 24 hr is also calculated and indicated.

[12] = molecular target: T1, dog CXCR3 (Canis lupus familiaris, UniProt Q5KSK8); assay: [125I]hCXCL10 competition binding (SPA, Ba/F3 membranes); details: read-out: IC50 (nM) (CXCL10)
T1 construct: expressed in transfected cells; host or cells: mouse pro-B Ba/F3 cells (vector pME18Sneo), membrane preparation
Method: (§3) The cDNAs encoding human, mouse and rat CXCR3 were generated based on the published sequences: human (NM_001504), mouse (NM_009910), rat (NM_053415). The cDNAs for monkey and dog CXCR3 were cloned in the lab. All CXCR3 cDNAs were cloned into the mammalian expression vector pME18Sneo, a derivative of the SRα expression vector as described previously. IL-3-dependent mouse pro-B cells Ba/F3 were transfected to express CXCR3 of different species and cell membranes were prepared as described previously.
(§4) A scintillation proximity assay was used for radioligand competition binding assays as described previously with some modifications. For each assay point, 1 µg of membrane was preincubated for 1 hr with 300 µg wheat germ agglutinin (WGA) coated SPA beads (GE Healthcare Life Sciences) in the binding buffer (50 mM HEPES, 1 mM CaCl2, 5 mM MgCl2, 125 mM NaCl, 0.002% NaN3, 1.0% BSA) at room temperature. The beads were spun down, resuspended in the binding buffer and transferred to a 96-well Isoplate (Wallac, Gaithersburg, MD). The indicated concentrations of ^125I-hCXCL10, ^125I-hCXCL11 or ^35S-SCH 535390 with a series of titrations of SCH 546738 were added to start the reaction. After indicated reaction times at room temperature, the amount of radioactivity bound to the SPA beads was determined with a Wallac 1450 Microbeta counter (Wallac).
(§5) It is important to investigate species specificity of SCH 546738 to design in vivo preclinical studies.

[13] = molecular target: T2, rat CXCR3 (Rattus norvegicus, UniProt Q9JII9); assay: as above; details: read-out: IC50 (nM) (CXCL10)
T2 construct: expressed in transfected cells; host or cells: mouse pro-B Ba/F3 cells (vector pME18Sneo), membrane preparation
Method: as §3, §4, §5

[14] = molecular target: T3, mouse CXCR3 (Mus musculus, UniProt O88410); assay: as above; details: read-out: IC50 (nM) (CXCL10)
T3 construct: expressed in transfected cells; host or cells: mouse pro-B Ba/F3 cells (vector pME18Sneo), membrane preparation
Method: as §3, §4, §5

[15] = molecular target: T4, CXCR3 (Homo sapiens, UniProt P49682); assay: as above; set-up: expressed in transfected cells; host or cells: mouse pro-B Ba/F3 cells (vector pME18Sneo), membrane preparation
T4 sequence (P49682 1-368): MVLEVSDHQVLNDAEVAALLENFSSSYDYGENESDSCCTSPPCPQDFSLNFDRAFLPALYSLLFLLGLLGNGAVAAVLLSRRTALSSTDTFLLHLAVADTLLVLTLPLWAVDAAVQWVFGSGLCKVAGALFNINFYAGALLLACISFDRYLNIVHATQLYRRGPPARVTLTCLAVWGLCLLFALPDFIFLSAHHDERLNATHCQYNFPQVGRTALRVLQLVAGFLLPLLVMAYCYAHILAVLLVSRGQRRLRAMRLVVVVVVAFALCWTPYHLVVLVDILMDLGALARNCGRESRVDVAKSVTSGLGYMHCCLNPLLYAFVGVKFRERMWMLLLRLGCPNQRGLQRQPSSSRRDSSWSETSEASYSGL
Method: as §3, §4
The ability of SCH 546738 to compete the binding of [^125I]hCXCL10 and [^125I]hCXCL11 to human CXCR3 receptor was determined using various concentrations of [^125I]hCXCL10 and [^125I]hCXCL11 as described in Methods. After 3 hr reaction, specific counts relative to input counts (B/B0) in the presence of increasing concentrations of SCH 546738 are plotted.

[16] = molecular target: T4, CXCR3; assay: human activated T cell chemotaxis induced by CXCL9, CXCL10, CXCL11; assay type: cell-based; set-up: endogenous in cells
Method: The preparation of human activated T cells was performed as described previously [39]. Human peripheral blood lymphocytes were prepared by Ficoll-Hypaque centrifugation, depleted of monocytes, and stimulated for 2 days with 1 µg/ml PHA (Murex Diagnostics, Dartford, U.K.) and 100 U/ml IL-2 (Sigma, St. Louis, MO) in RPMI 1640 supplemented with 10% fetal bovine serum (FBS), 2 mM L-glutamine, 100 µg/ml streptomycin, 100 U/ml penecillin, 1% non-essential amino acids and 2 mM HEPES. Following stimulation, peripheral blood lymphocytes were cultured in above media containing 5% conditioned media (Sigma) for up to 15 days.
Human activated T cell chemotaxis assays were performed using 96-well ChemoTx® microplates (Neuro Probe, Inc., Gaithersburg, MD) with a 3 µm filter as per manufacturers' instructions. Activated T cells were washed with RPMI medium twice, and then resuspended in the medium containing 20% FBS. 1.25 × 10^5 cells/reaction were mixed with indicated concentrations of the compound and placed on the filter. The compound and chemokines were mixed and placed in the bottom well of the ChemoTx system. […] The number of migrated cells was measured using the Cell Titer Glo Luminescent Assay from Promega (Madison, WI) as per vendor's instructions. Chemotaxis is expressed as a chemotactic index, which is a ratio versus the one without chemokines (spontaneous migration). […]

[17] = plasma pharmacokinetics after oral dosing in Lewis rat; assay type: in vivo; details: 10 mg/kg oral in 0.4% methylcellulose, n = 3, read-out: AUC (0-24 hr)
Method: as §1, §2

Sequence of Histamine H1 (P35367 whole entry): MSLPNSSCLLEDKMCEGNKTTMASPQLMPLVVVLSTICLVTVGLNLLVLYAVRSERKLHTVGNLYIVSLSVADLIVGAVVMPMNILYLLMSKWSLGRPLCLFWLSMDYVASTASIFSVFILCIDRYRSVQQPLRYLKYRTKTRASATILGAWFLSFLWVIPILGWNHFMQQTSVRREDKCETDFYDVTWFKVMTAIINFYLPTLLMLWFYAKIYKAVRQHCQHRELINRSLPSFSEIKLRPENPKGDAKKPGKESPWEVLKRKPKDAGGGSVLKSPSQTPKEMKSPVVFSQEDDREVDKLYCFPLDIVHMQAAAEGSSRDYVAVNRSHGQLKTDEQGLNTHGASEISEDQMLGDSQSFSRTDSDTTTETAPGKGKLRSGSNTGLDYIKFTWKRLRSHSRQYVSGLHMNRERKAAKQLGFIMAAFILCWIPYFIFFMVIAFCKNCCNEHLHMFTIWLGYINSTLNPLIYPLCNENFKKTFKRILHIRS
T2 sequence (Q9JII9 whole entry): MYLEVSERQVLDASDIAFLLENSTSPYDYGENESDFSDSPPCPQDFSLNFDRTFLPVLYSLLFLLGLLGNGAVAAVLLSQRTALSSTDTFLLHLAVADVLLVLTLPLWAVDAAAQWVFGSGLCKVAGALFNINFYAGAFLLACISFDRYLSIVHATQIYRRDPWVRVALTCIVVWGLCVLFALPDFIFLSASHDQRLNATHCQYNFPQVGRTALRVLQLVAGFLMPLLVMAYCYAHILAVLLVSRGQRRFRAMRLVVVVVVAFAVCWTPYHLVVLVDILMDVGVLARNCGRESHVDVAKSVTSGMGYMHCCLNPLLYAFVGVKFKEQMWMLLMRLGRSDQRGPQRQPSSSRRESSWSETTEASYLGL
Sequence of Muscarinic M1 (P11229 whole entry): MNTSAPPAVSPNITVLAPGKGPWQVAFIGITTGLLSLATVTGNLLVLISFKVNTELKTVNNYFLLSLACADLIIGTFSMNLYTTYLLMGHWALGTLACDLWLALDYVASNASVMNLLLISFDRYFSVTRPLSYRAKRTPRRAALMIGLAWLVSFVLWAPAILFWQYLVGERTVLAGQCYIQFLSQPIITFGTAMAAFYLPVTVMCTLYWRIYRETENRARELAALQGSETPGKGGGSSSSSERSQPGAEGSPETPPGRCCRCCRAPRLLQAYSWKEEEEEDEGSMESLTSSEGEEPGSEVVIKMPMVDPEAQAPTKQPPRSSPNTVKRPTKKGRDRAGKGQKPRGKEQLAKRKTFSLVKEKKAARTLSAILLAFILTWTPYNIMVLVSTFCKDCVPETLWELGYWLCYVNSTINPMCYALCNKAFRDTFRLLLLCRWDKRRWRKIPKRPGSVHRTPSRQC
Sequence of Muscarinic M4 (P08173 whole entry): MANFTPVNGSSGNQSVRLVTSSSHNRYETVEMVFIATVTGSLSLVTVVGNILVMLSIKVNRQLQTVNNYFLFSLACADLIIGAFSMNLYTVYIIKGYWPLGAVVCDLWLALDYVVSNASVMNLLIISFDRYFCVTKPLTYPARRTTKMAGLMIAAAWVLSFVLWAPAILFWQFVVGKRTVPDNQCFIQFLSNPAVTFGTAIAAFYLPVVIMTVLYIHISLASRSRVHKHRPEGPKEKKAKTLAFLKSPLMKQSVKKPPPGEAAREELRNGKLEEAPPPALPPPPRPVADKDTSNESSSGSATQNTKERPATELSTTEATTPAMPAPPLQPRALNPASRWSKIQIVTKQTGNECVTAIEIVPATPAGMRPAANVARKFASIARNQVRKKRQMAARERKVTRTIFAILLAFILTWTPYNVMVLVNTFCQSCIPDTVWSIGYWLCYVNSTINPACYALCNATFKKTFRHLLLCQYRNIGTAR
Sequence of Prokineticin PKR1 (Q8TCW9 whole entry): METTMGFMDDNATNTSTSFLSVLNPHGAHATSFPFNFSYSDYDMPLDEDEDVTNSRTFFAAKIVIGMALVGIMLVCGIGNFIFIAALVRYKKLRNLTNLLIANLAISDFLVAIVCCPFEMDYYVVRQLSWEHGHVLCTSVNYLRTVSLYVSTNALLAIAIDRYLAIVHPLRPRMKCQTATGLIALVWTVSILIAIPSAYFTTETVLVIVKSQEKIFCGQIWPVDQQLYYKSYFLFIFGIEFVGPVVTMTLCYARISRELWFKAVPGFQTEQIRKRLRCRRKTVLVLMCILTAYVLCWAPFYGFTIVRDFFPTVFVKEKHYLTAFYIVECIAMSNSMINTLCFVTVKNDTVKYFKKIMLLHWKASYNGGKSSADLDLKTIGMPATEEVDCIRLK
T3 sequence (O88410 whole entry): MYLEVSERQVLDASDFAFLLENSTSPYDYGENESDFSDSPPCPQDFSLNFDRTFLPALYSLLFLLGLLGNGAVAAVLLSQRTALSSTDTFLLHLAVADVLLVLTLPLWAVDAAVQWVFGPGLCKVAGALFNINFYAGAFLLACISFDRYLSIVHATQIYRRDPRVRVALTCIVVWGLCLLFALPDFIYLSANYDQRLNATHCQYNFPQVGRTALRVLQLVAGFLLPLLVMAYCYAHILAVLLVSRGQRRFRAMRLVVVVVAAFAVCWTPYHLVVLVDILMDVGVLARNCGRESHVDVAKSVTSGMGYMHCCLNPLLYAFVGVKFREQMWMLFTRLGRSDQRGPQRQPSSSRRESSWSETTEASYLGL
T1 sequence (Q5KSK8 whole entry): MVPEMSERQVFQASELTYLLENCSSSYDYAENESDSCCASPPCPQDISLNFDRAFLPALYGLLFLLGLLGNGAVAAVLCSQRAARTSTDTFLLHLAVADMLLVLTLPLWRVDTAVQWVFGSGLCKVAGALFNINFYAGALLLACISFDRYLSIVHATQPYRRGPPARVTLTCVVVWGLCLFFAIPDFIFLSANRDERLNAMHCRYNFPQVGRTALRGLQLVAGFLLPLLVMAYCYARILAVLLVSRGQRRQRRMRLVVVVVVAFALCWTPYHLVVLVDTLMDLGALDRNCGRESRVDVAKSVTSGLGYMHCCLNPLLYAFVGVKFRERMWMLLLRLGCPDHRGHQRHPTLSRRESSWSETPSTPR
Sequence of CCR3 (P51677 whole entry): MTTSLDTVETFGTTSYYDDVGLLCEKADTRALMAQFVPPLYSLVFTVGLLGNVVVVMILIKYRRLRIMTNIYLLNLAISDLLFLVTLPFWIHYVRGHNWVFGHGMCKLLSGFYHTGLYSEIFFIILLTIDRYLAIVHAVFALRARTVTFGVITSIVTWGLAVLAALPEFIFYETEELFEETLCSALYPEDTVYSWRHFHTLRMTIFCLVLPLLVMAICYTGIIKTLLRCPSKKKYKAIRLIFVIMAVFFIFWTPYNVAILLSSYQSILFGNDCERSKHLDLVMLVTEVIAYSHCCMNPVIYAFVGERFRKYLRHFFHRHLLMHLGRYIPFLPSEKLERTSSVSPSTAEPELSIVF
Sequence of Kappa opiate (P41145 whole entry): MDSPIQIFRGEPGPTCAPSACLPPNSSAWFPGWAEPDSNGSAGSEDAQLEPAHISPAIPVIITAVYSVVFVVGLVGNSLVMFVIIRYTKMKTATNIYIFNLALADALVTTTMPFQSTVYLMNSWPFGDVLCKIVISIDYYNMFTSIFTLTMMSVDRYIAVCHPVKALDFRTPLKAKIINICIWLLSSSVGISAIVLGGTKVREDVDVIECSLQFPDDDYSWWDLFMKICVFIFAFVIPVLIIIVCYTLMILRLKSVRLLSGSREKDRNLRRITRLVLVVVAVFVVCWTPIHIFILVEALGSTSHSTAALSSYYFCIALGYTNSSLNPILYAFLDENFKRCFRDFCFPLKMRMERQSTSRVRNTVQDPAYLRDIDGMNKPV
Sequence of Neuropeptide Y (Y5) (Q15761 whole entry): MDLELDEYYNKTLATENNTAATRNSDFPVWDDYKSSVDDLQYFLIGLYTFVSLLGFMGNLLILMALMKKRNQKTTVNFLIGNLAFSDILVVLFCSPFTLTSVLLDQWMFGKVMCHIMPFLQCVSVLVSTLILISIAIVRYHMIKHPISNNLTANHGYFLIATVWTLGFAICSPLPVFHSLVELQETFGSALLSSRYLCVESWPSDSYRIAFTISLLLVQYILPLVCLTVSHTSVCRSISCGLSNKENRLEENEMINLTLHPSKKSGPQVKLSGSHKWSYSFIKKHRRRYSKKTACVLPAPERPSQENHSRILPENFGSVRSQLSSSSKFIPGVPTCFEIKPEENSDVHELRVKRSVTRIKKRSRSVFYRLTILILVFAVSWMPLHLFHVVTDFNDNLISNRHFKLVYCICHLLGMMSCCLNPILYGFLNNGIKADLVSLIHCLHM
Sequence of Neuropeptide Y (Y4) (P50391 whole entry): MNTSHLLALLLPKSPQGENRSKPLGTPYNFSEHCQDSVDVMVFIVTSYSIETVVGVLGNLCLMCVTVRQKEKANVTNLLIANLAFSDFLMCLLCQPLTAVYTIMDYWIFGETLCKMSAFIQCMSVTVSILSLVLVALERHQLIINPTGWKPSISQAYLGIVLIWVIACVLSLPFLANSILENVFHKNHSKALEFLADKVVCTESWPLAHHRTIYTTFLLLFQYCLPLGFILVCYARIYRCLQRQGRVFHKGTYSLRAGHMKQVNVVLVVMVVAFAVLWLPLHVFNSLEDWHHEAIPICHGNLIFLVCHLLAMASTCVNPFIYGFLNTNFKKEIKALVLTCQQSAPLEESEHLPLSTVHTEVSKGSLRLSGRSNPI
Sequence of Serotonergic 5HT1A (P08908 whole entry): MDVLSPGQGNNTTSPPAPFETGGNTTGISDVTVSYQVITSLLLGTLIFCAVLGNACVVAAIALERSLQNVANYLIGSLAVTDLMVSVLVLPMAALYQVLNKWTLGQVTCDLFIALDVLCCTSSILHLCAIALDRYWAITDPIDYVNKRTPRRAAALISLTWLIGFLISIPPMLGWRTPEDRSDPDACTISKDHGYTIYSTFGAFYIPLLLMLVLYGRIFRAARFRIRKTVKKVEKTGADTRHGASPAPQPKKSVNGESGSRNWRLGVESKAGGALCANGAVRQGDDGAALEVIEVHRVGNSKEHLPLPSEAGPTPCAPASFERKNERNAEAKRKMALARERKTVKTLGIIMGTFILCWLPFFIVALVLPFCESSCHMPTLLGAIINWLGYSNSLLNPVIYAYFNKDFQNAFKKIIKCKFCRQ

With CC[C@H]1CN(c2nc(N)c(C(N)=O)nc2Cl)CCN1C1CCN(Cc2ccc(Cl)cc2)CC1 [SCH 546738] the inhibition at 10 µM [1] was 13%, the inhibition at 4 µM [2] was -2% and the inhibition at 4 µM [3] was -1%. For the same molecule, the inhibition at 4 µM [4] was 20%, the inhibition at 4 µM [5] was 22% and the inhibition at 2 µM [6] was 46%. The inhibition at 4 µM [7] was 30%, the inhibition at 4 µM [8] was 12% and the inhibition at 4 µM [9] was 7%. The inhibition at 10 µM [10] was 17%, the AUC(0-t) [11] was 12.6 µM·h and the IC50 [12] was 6.4 nM. The IC50 [13] was 4.2 nM, the IC50 [14] was 5.9 nM and the IC50 ([15]; Human CXCR3, [125I]hCXCL10, read-out: IC50 (nM) (CXCL10)) was 0.8 nM. The IC50 ([15]; [125I-hIP-10] 100 pM, 3 hr reaction, read-out: IC50) was 1 nM, the IC50 ([15]; [125I-hIP-10] 500 pM, 3 hr reaction, read-out: IC50) was 1.2 nM and the IC50 ([15]; [125I]hCXCL10 25-500 pM, read-out: IC50 (constant, independent of input concentration)) was about 1 nM. For the same molecule, the “mode of antagonism of CXCL10 and CXCL11 binding to CXCR3” value ([15]; both CXCL10 and CXCL11) was “non-competitive antagonist”, the IC50 ([15]; range over both radioligands CXCL10 and CXCL11, read-out: IC50 for displacing radiolabeled CXCL10 and CXCL11 from human CXCR3) was 0.8 to 2.2 nM and the inhibition at 0.01 µM ([16]; 10 nM compound, CXCL9, CXCL10, CXCL11, 20% FBS, read-out: inhibition of T cell chemotaxis induced by all three CXCR3 ligands) was about 90%. The IC90 ([16]; human activated T cells, read-out: IC90 of CXCR3-mediated chemotaxis) was about 10 nM and the AUC(0-t) [17] was 7.7 µM·h.
